Measured values as given in ChEMBL document CHEMBL4811295, “The ester derivatives obtained by C-ring modification of podophyllotoxin induce apoptosis and inhibited proliferation in PC-3M cells via down-regulation of PI3K/Akt signaling pathway” (Bioorg Med Chem Lett, 2021).
Calls of active or inactive are those of the source. The rule behind the calls is not given here.

Key:
PC-3M [1] = assay: Cytotoxicity in human PC-3M cells assessed as inhibition of cell proliferation measured by CCK-8 assay; assay type: functional, cell-based
HMEC = assay: Cytotoxicity in human HMEC cells assessed as inhibition of cell proliferation measured by CCK-8 assay; assay type: functional, cell-based
A549 = assay: Cytotoxicity in human A549 cells assessed as inhibition of cell proliferation measured by CCK-8 assay; assay type: functional, cell-based
MCF7 = assay: Cytotoxicity in human MCF7 cells assessed as inhibition of cell proliferation measured by CCK-8 assay; assay type: functional, cell-based
HepG2 = assay: Cytotoxicity in human HepG2 cells assessed as inhibition of cell proliferation measured by CCK-8 assay; assay type: functional, cell-based
PC-3M [2] = assay: Induction of apoptosis in human PC-3M cells assessed by apoptotic changes in cells at 1 uM measured after 48 hrs by DAPI staining based microscopic method relative to PPT; assay type: functional, cell-based
PC-3M [3] = assay: Induction of apoptosis in human PC-3M cells assessed by broken nucleus at 10 nM measured after 48 hrs by DAPI staining based microscopic method; assay type: functional, cell-based
PC-3M [4] = assay: Induction of apoptosis in human PC-3M cells assessed by irregular nucleus at 10 nM measured after 48 hrs by DAPI staining based microscopic method; assay type: functional, cell-based
PC-3M [5] = assay: Induction of apoptosis in human PC-3M cells assessed by formation of chromatin fragments at 10 nM measured after 48 hrs by DAPI staining based microscopic method; assay type: functional, cell-based
PC-3M [6] = assay: Induction of apoptosis in human PC-3M cells assessed by formation of apoptotic bodies at 10 nM measured after 48 hrs by DAPI staining based microscopic method; assay type: functional, cell-based
PC-3M [7] = assay: Antiproliferative activity against human PC-3M cells assessed as inhibition of cell proliferation measured after 9 days by Crystal violet staining based colony formation assay; assay type: functional; conditions: dose 5-10 nM, time 9.0 day
PC-3M [8] = assay: Anti-migration activity in human PC-3M cells measured after 24 hrs by microscopy based wound scratch method; assay type: functional, cell-based; conditions: dose 1-10 nM
PC-3M [9] = assay: Induction of apoptosis in human PC-3M cells assessed as viable cells at 1 nM measured after 48 hrs by Annexin V/PI staining based flow cytometry method (reference value: 95.6%); assay type: functional; conditions: read-out: Activity
PC-3M [10] = assay: Induction of apoptosis in human PC-3M cells assessed as early apoptotic cells at 1 nM measured after 48 hrs by Annexin V/PI staining based flow cytometry method (reference value: 1.25%); assay type: functional
PC-3M [11] = assay: Induction of apoptosis in human PC-3M cells assessed as late apoptotic cells at 1 nM measured after 48 hrs by Annexin V/PI staining based flow cytometry method (reference value: 2.88%); assay type: functional
PC-3M [12] = assay: Induction of apoptosis in human PC-3M cells assessed as necrotic cells at 1 nM measured after 48 hrs by Annexin V/PI staining based flow cytometry method (reference value: 0.25%); assay type: functional
PC-3M [13] = assay: Induction of apoptosis in human PC-3M cells assessed as viable cells at 5 nM measured after 48 hrs by Annexin V/PI staining based flow cytometry method (reference value: 95.6%); assay type: functional; conditions: read-out: Activity
PC-3M [14] = assay: Induction of apoptosis in human PC-3M cells assessed as early apoptotic cells at 5 nM measured after 48 hrs by Annexin V/PI staining based flow cytometry method (reference value: 1.25%); assay type: functional
PC-3M [15] = assay: Induction of apoptosis in human PC-3M cells assessed as late apoptotic cells at 5 nM measured after 48 hrs by Annexin V/PI staining based flow cytometry method (reference value: 2.88%); assay type: functional
PC-3M [16] = assay: Induction of apoptosis in human PC-3M cells assessed as necrotic cells at 5 nM measured after 48 hrs by Annexin V/PI staining based flow cytometry method (reference value: 0.25%); assay type: functional
PC-3M [17] = assay: Induction of apoptosis in human PC-3M cells assessed as viable cells at 10 nM measured after 48 hrs by Annexin V/PI staining based flow cytometry method (reference value: 95.6%); assay type: functional; conditions: read-out: Activity
PC-3M [18] = assay: Induction of apoptosis in human PC-3M cells assessed as early apoptotic cells at 10 nM measured after 48 hrs by Annexin V/PI staining based flow cytometry method (reference value: 1.25%); assay type: functional
PC-3M [19] = assay: Induction of apoptosis in human PC-3M cells assessed as late apoptotic cells at 10 nM measured after 48 hrs by Annexin V/PI staining based flow cytometry method (reference value: 2.88%); assay type: functional
PC-3M [20] = assay: Induction of apoptosis in human PC-3M cells assessed as necrotic cells at 10 nM measured after 48 hrs by Annexin V/PI staining based flow cytometry method (reference value: 0.25%); assay type: functional
PC-3M [21] = assay: Inhibition of PI3K in human PC-3M cells assessed as reduction of phosphorylated PI3K expression at 1 to 10 nM measured by western blot assay; assay type: cell-based; conditions: dose 1-10 nM
[22] = target: RAC-alpha serine/threonine-protein kinase (Homo sapiens) (UniProt P31749); assay: Inhibition of Akt in human PC-3M cells assessed as reduction of […] expression at 1 to 10 nM measured by western blot assay; assay type: cell-based; conditions: dose 1-10 nM
RAC-alpha serine/threonine-protein kinase (Homo sapiens), sequence (P31749 whole entry): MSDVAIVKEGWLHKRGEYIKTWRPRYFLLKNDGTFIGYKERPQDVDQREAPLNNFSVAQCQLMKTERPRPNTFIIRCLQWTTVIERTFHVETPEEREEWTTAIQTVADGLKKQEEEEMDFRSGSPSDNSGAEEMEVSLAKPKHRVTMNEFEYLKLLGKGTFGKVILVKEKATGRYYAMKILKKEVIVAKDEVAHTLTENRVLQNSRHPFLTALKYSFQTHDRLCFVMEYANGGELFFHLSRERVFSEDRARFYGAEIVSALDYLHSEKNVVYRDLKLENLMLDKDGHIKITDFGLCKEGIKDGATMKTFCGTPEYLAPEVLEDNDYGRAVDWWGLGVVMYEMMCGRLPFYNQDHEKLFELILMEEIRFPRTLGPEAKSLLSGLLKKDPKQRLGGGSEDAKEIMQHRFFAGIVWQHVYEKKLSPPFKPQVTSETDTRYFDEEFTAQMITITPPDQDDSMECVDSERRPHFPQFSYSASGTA

PC-3M [23] = assay: Induction of apoptosis in human PC-3M cells assessed as decrease of Bcl-2 expression at 1 to 10 nM measured by western blot assay; assay type: functional, cell-based; conditions: dose 1-10 nM
PC-3M [24] = assay: Induction of apoptosis in human PC-3M cells assessed as increase of Bax expression at 1 to 10 nM measured by western blot assay; assay type: functional, cell-based; conditions: dose 1-10 nM
PC-3M [25] = assay: Induction of apoptosis in human PC-3M cells assessed as increase of cleaved caspase-3 expression at 1 to 10 nM measured by western blot assay; assay type: functional, cell-based; conditions: dose 1-10 nM

`COc1cc([C@@H]2c3cc4c(cc3[C@H](OC(=O)c3sccc3Cl)[C@H]3COC(=O)[C@H]23)OCO4)cc(OC)c1OC` gave an IC50 (PC-3M [1]) of 0.965 µM, an IC50 (HMEC) of 0.116 µM and an IC50 (A549) of 0.155 µM. It also gave an IC50 (MCF7) greater than 200 µM and an IC50 (HepG2) of 149 µM.
In the case of `COc1cc([C@@H]2c3cc4c(cc3[C@H](OC(=O)CNC(=O)OC(C)(C)C)[C@H]3COC(=O)[C@H]23)OCO4)cc(OC)c1OC`, the IC50 (PC-3M [1]) is reported as 0.00128 µM, the IC50 (HMEC) is reported as 0.768 µM and the IC50 (A549) is reported as 0.00954 µM. The IC50 (MCF7) was 144 µM, the IC50 (HepG2) was 50.7 µM and the Activity (PC-3M [2]) was “Active”. For the same molecule, the Activity (PC-3M [3]) was “Dose-Dependent Effect”, the Activity (PC-3M [4]) was “Dose-Dependent Effect” and the Activity (PC-3M [5]) was “Dose-Dependent Effect”. The Activity (PC-3M [6]) was “Dose-Dependent Effect”, the Activity (PC-3M [7]) was “Dose-Dependent Effect” and the Activity (PC-3M [8]) was “Dose-Dependent Effect”. For the same molecule, the viability at 0.001 µM (PC-3M [9]) was 92.5%, the Activity (PC-3M [10]) was 1.86% and the Activity (PC-3M [11]) was 5.53%. For the same molecule, the Activity (PC-3M [12]) was 0.14%, the viability at 0.005 µM (PC-3M [13]) was 83.4% and the Activity (PC-3M [14]) was 3.74%. The Activity (PC-3M [15]) was 12.7%, the Activity (PC-3M [16]) was 0.11% and the viability at 0.01 µM (PC-3M [17]) was 64.4%. For the same molecule, the Activity (PC-3M [18]) was 5.41%, the Activity (PC-3M [19]) was 29.9% and the Activity (PC-3M [20]) was 0.21%. For the same molecule, the inhibition (PC-3M [21]) was “Active”, the inhibition [22] was “Active” and the Activity (PC-3M [23]) was “Dose-Dependent Effect”. For the same molecule, the Activity (PC-3M [24]) was “Dose-Dependent Effect” and the Activity (PC-3M [25]) was “Dose-Dependent Effect”.
`COc1cc([C@@H]2c3cc4c(cc3[C@H](OC(=O)CN(C)C(=O)OC(C)(C)C)[C@H]3COC(=O)[C@H]23)OCO4)cc(OC)c1OC` gave an IC50 (PC-3M [1]) of 0.0132 µM, an IC50 (HMEC) of 27.8 µM and an IC50 (A549) of 0.043 µM.
With `COc1cc([C@@H]2c3cc4c(cc3[C@H](OC(=O)[C@H](Cc3ccccc3)NC(=O)OC(C)(C)C)[C@H]3COC(=O)[C@H]23)OCO4)cc(OC)c1OC` the IC50 (PC-3M [1]) was 0.0201 µM, the IC50 (HMEC) was 2.46 µM and the IC50 (A549) was 0.0234 µM. The IC50 (MCF7) was 72.4 µM and the IC50 (HepG2) was greater than 200 µM.
`COc1cc([C@@H]2c3cc4c(cc3[C@H](OC(=O)c3ccncc3)[C@H]3COC(=O)[C@H]23)OCO4)cc(OC)c1OC` [4-O-PODOPHYLLOTOXINYL-ISONICOTINATE] showed an IC50 (PC-3M [1]) of 0.0926 µM, an IC50 (HMEC) of 3.72 µM and an IC50 (A549) of 0.0163 µM. It also gave an IC50 (MCF7) greater than 200 µM and an IC50 (HepG2) of 188 µM.
Molecule `COc1cc([C@@H]2c3cc4c(cc3[C@H](OC(=O)[C@@H]3CCCN3C(=O)OC(C)(C)C)[C@H]3COC(=O)[C@H]23)OCO4)cc(OC)c1OC` has an IC50 (PC-3M [1]) of 1.73 µM, an IC50 (HMEC) of 3.23 µM and an IC50 (A549) of 0.6 µM. For the same molecule, the IC50 (MCF7) was 124 µM and the IC50 (HepG2) was 50.8 µM.
Work on `CC[C@H](C)[C@H](NC(=O)OC(C)(C)C)C(=O)O[C@H]1c2cc3c(cc2[C@@H](c2cc(OC)c(OC)c(OC)c2)[C@H]2C(=O)OC[C@@H]21)OCO3` yielded an IC50 (PC-3M [1]) of 1.07 µM, an IC50 (HMEC) of 4.48 µM and an IC50 (A549) of 7.96 µM. The IC50 (MCF7) was 69.9 µM and the IC50 (HepG2) was 0.866 µM.
With `COc1cc([C@@H]2c3cc4c(cc3[C@H](OC(=O)[C@H](CC(C)C)NC(=O)OC(C)(C)C)[C@H]3COC(=O)[C@H]23)OCO4)cc(OC)c1OC` the IC50 (PC-3M [1]) was 0.00898 µM, the IC50 (HMEC) was 2.37 µM and the IC50 (A549) was 6.44 µM. For the same molecule, the IC50 (MCF7) was 140 µM and the IC50 (HepG2) was 60.3 µM.
`COc1cc([C@@H]2c3cc4c(cc3[C@H](OC(=O)[C@H](CCSC)NC(=O)OC(C)(C)C)[C@H]3COC(=O)[C@H]23)OCO4)cc(OC)c1OC` showed an IC50 (PC-3M [1]) of 0.00511 µM, an IC50 (HMEC) of 2.6 µM and an IC50 (A549) of 1.03 µM. It also gave an IC50 (MCF7) of 93.1 µM and an IC50 (HepG2) of 51 µM.
In the case of `COc1cc([C@@H]2c3cc4c(cc3[C@H](OC(=O)[C@H](C)NC(=O)OC(C)(C)C)[C@H]3COC(=O)[C@H]23)OCO4)cc(OC)c1OC`, the IC50 (PC-3M [1]) is reported as 1.17 µM, the IC50 (HMEC) is reported as 8.42 µM and the IC50 (A549) is reported as 0.0284 µM. It also gave an IC50 (MCF7) of 40.7 µM and an IC50 (HepG2) of 84.9 µM.
`COc1cc([C@@H]2c3cc4c(cc3[C@H](OC(=O)c3ccc(Br)s3)[C@H]3COC(=O)[C@H]23)OCO4)cc(OC)c1OC` showed an IC50 (PC-3M [1]) of 0.619 µM, an IC50 (HMEC) of 1.77 µM and an IC50 (A549) of 0.504 µM. It also gave an IC50 (MCF7) greater than 200 µM and an IC50 (HepG2) of 33.9 µM.
